Laboratory results reported in patent publication US20230141101A1, “PDE4 INHIBITOR COMPOUND AND MEDICAL USE THEREOF” (Suzhou Longbotai Pharmaceuticals Co., Ltd., priority 2020, published 2023).

How the values were obtained:
Type in all cases: biochemical
PDE4A1A = target: T1, PDE4A1A (Homo sapiens, UniProt P27815); assay: PDE4 inhibitory activity assay (FAM-cAMP enzymatic reaction), PDE4A1A
T1 construct: purchased BPS 60040
In short: (§1)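 Each isoform is incubated with test compound for 15 min at room temperature before FAM-cAMP substrate starts a 30-min reaction.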

PDE4B1 = target: T2, PDE4B1 (Homo sapiens, UniProt Q07343); assay: PDE4 inhibitory activity assay (FAM-cAMP enzymatic reaction), PDE4B1
T2 construct: purchased BPS 60041
In short: as §1

PDE4D2 = PDE4D2 (Homo sapiens, UniProt Q08499); assay: PDE4 inhibitory activity assay (FAM-cAMP enzymatic reaction), PDE4D2
In short: as §1

[1] = compared with Apremilast and Example 11 of WO2018036470 (WX011)

T2 sequence (Q07343 whole entry): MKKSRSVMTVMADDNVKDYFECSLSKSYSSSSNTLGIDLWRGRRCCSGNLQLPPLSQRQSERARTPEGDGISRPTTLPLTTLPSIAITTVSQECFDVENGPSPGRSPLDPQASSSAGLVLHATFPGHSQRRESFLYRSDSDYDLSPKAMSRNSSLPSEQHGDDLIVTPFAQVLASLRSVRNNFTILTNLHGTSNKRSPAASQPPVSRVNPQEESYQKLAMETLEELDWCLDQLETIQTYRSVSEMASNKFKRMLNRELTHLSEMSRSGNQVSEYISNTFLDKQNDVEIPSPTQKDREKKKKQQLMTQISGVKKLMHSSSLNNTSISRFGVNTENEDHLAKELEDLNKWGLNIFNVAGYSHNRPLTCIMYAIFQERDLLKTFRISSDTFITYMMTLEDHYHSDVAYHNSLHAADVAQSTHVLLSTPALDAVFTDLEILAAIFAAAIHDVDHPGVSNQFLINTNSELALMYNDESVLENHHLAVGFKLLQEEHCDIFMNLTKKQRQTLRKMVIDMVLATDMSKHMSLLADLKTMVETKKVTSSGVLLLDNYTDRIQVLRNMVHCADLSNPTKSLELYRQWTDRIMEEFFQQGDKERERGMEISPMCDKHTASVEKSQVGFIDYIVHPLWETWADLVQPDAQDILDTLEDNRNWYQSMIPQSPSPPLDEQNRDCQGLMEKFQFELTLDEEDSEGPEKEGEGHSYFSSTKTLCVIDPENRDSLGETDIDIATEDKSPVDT
Chain of PDE4D2 (Q08499 303-809): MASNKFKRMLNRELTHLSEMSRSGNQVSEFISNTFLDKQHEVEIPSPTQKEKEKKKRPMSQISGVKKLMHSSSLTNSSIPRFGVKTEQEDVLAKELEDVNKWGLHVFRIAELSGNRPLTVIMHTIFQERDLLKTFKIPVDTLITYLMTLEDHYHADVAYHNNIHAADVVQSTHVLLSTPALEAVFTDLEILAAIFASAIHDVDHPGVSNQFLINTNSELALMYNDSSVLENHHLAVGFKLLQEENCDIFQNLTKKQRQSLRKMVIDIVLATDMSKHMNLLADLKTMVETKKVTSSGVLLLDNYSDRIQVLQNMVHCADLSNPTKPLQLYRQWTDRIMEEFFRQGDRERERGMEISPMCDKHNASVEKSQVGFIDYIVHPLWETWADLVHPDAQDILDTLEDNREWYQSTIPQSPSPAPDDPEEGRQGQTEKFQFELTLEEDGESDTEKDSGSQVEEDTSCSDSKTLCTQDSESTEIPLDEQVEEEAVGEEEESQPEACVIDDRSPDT
T1 sequence (P27815 1-647 isoform P27815-4): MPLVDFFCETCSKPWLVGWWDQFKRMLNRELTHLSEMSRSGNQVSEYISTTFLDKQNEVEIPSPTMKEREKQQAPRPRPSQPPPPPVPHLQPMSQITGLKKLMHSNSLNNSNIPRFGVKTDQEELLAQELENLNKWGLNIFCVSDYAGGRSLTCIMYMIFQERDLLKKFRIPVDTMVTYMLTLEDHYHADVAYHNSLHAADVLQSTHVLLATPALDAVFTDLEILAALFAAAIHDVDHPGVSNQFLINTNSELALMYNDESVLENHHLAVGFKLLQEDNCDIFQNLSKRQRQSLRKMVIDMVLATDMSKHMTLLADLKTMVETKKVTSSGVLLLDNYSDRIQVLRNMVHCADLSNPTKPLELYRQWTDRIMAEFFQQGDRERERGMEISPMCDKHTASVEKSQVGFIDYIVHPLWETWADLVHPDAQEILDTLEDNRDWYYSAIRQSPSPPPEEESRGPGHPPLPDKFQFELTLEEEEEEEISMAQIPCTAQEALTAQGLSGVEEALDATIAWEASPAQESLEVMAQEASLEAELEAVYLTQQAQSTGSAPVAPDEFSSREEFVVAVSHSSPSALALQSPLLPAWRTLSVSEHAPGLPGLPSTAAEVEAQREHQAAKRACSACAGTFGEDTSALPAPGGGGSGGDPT

Row | Compound | PDE4 A1 inhibitory effect at 20 nM (PDE4A1A) | PDE4 B1 inhibitory effect at 20 nM (PDE4B1) | PDE4 D2 inhibitory effect at 20 nM (PDE4D2) | IC50 (PDE4D2; read-out: PDE4 D2 inhibitory activity (IC50 value)) | inhibitory activity against PDE4A1A compared with Apremilast and WX011 (PDE4A1A; [1]) | inhibitory activity against PDE4B1 compared with Apremilast and WX011 (PDE4B1; [1]) | inhibitory activity against PDE4D2 compared with Apremilast and WX011 (PDE4D2; [1])
1 | CCOc1nc([C@@H](CS(C)(=O)=O)n2c(=O)[nH]c3cc(-c4cccc(C)c4C)ccc32)ccc1OC [Ex. 166, (S)-5-(2,3-dimethylphenyl)-1-(1-(6-ethoxy-5-methoxypyridin-2-yl)-2-(methylsulfonyl)ethyl)-1H-benzo[d]imidazol-2(3H)-one] | + | + | + |  |  |  | 
2 | CCOc1nc([C@@H](CS(C)(=O)=O)n2c(=O)[nH]c3cc(-c4cccc(OC)c4F)ccc32)ccc1OC [Ex. 183, (S)-5-(2-fluoro-3-methoxyphenyl)-1-(1-(6-ethoxy-5-methoxypyridin-2-yl)-2-(methylsulfonyl)ethyl)-1H-benzo[d]imidazol-2(3H)-one] | + | + | + |  |  |  | 
3 | CCOc1nc([C@@H](CS(C)(=O)=O)n2c(=O)n(C)c3cc(-c4cc(F)ccc4OC)ccc32)ccc1OC [Ex. 187, (S)-5-(5-fluoro-2-methoxyphenyl)-1-(1-(6-ethoxy-5-methoxypyridin-2-yl)-2-(methylsulfonyl)ethyl)-3-methyl-1H-benzo[d]imidazol-2(3H)-one] | + | + | + |  |  |  | 
4 | CCOc1ccccc1-c1ccc2c(c1)[nH]c(=O)n2[C@@H](CS(C)(=O)=O)c1ccc(OC)c(OCC)n1 [Ex. 193, (R)-1-(1-(6-ethoxy-5-methoxypyridin-2-yl)-2-(methylsulfonyl)ethyl)-5-(2-ethoxyphenyl)-1H-benzo[d]imidazol-2(3H)-one] | − | − | − |  |  |  | 
5 | CCOc1nc([C@@H](CS(C)(=O)=O)n2c(=O)[nH]c3cc(-c4ccccc4OC)cnc32)ccc1OC [Ex. 83, (S)-3-(1-(6-ethoxy-5-methoxypyridin-2-yl)-2-(methylsulfonyl)ethyl)-6-(2-methoxyphenyl)-1H-imidazo[4,5-b]pyridin-2(3H)-one] | + | + | + |  |  |  | 
6 | CCOc1nc([C@@H](CS(C)(=O)=O)n2c(=O)n(CC(F)F)c3c(C)c(-c4ccccc4)cnc32)ccc1OC(C)C [Ex. 70, (S)-1-(2,2-difluoroethyl)-3-(1-(6-ethoxy-5-isopropoxypyridin-2-yl)-2-(methylsulfonyl)ethyl)-7-methyl-6-phenyl-1H-imidazo[4,5-b]pyridin-2(3H)-one] | + | + | + |  |  |  | 
7 | CCOc1nc([C@@H](CS(C)(=O)=O)n2c(=O)n(C)c3c(C)c(-c4ccc(F)cc4)cnc32)ccc1OC(F)F [Ex. 67, (S)-3-(1-(5-(difluoromethoxy)-6-ethoxypyridin-2-yl)-2-(methylsulfonyl)ethyl)-6-(4-fluorophenyl)-1,7-dimethyl-1H-imidazo[4,5-b]pyridin-2(3H)-one] | + | + | + |  |  |  | 
8 | CCOc1nc([C@@H](CS(C)(=O)=O)n2c(=O)[nH]c3cc(-c4cc(F)ccc4OC)ccc32)ccc1OC [Ex. 186, (S)-5-(5-fluoro-2-methoxyphenyl)-1-(1-(6-ethoxy-5-methoxypyridin-2-yl)-2-(methylsulfonyl)ethyl)-1H-benzo[d]imidazol-2(3H)-one] | + | + | + |  |  |  | 
9 | CCOc1nc([C@@H](CS(C)(=O)=O)n2c(=O)[nH]c3cc(-c4cccc(F)c4C)cnc32)ccc1OC [Ex. 111, (S)-6-(3-fluoro-2-methylphenyl)-3-(1-(6-ethoxy-5-methoxypyridin-2-yl)-2-(methylsulfonyl)ethyl)-1H-imidazo[4,5-b]pyridin-2(3H)-one] | + | + | + |  |  |  | 

Second part, led by results:

Row | PDE4 A1 inhibitory effect at 20 nM (PDE4A1A) | PDE4 B1 inhibitory effect at 20 nM (PDE4B1) | PDE4 D2 inhibitory effect at 20 nM (PDE4D2) | IC50 (PDE4D2; read-out: PDE4 D2 inhibitory activity (IC50 value)) | Compound | inhibitory activity against PDE4A1A compared with Apremilast and WX011 (PDE4A1A; [1]) | inhibitory activity against PDE4B1 compared with Apremilast and WX011 (PDE4B1; [1]) | inhibitory activity against PDE4D2 compared with Apremilast and WX011 (PDE4D2; [1])
10 | + | + | + |  | CCOc1nc([C@@H](CS(C)(=O)=O)N2C(=O)c3csc(NC(=O)CC)c3C2=O)ccc1OC [Ex. 226, (S)—N-(5-(1-(6-ethoxy-5-methoxypyridin-2-yl)-2-(methylsulfonyl)ethyl)-4,6-dioxo-5,6-dihydro-4H-thieno[3,4-c]pyrrol-1-yl)propionamide] |  |  | 
11 |  |  |  | 3.8 nM | CCOc1nc([C@@H](CS(C)(=O)=O)n2c(=O)[nH]c3c(C)c(-c4ccccc4C)cnc32)ccc1OC [Ex. 8, (S)-3-(1-(6-ethoxy-5-methoxypyridin-2-yl)-2-(methylsulfonyl)ethyl)-7-methyl-6-(o-methylphenyl)-1H-imidazo[4,5-b]pyridin-2(3H)-one] | significantly enhanced inhibitory activity | significantly enhanced inhibitory activity | significantly enhanced inhibitory activity
12 | + | + | + |  | CCOc1nc([C@@H](CS(C)(=O)=O)n2c(=O)n(CC)c3cc(-c4ccccn4)ccc32)ccc1OC [Ex. 197, (S)-1-(1-(6-ethoxy-5-methoxypyridin-2-yl)-2-(methylsulfonyl)ethyl)-3-ethyl-5-(pyridin-2-yl)-1H-benzo[d]imidazol-2(3H)-one] |  |  | 
13 | + | + | + |  | CCOc1nc([C@@H](CS(C)(=O)=O)n2c(=O)[nH]c3c(C)c(-c4ccc(OC)cc4F)cnc32)ccc1OC [Ex. 43, (S)-6-(2-fluoro-4-methoxyphenyl)-3-(1-(6-ethoxy-5-methoxypyridin-2-yl)-2-(methylsulfonyl)ethyl)-7-methyl-1H-imidazo[4,5-b]pyridin-2(3H)-one] |  |  | 
14 | + | + | + |  | CCOc1nc([C@@H](CS(C)(=O)=O)n2c(=O)[nH]c3c(C)c(-c4cccc(F)c4F)cnc32)ccc1OC [Ex. 25, (S)-6-(2,3-difluorophenyl)-3-(1-(6-ethoxy-5-methoxypyridin-2-yl)-2-(methylsulfonyl)ethyl)-7-methyl-1H-imidazo[4,5-b]pyridin-2(3H)-one] |  |  | 
15 | + | + | + |  | CCOc1nc([C@@H](CS(C)(=O)=O)n2c(=O)[nH]c3cc(-c4cc(F)ccc4C)cnc32)ccc1OC [Ex. 109, (S)-6-(5-fluoro-2-methylphenyl)-3-(1-(6-ethoxy-5-methoxypyridin-2-yl)-2-(methylsulfonyl)ethyl)-1H-imidazo[4,5-b]pyridin-2(3H)-one] |  |  | 
16 | + | + | + |  | CCOc1nc([C@@H](CS(C)(=O)=O)n2c(=O)[nH]c3c(C)c(-c4cccc(F)c4C)cnc32)ccc1OC [Ex. 37, (S)-6-(3-fluoro-2-methylphenyl)-3-(1-(6-ethoxy-5-methoxypyridin-2-yl)-2-(methylsulfonyl)ethyl)-7-methyl-1H-imidazo[4,5-b]pyridin-2(3H)-one] |  |  | 
17 | + | + | + |  | CCOc1nc([C@@H](CS(C)(=O)=O)n2c(=O)[nH]c3cc(-c4ccccc4C)ccc32)ccc1OC [Ex. 139, (S)-1-(1-(6-ethoxy-5-methoxypyridin-2-yl)-2-(methylsulfonyl)ethyl)-5-(o-methylphenyl)-1H-benzo[d]imidazol-2(3H)-one] |  |  | 
18 | + | + | + |  | CCOc1nc([C@@H](CS(C)(=O)=O)n2c(=O)[nH]c3c(C)c(-c4ccccc4)cnc32)ccc1OC(F)F [Ex. 61, (S)-3-(1-(5-(difluoromethoxy)-6-ethoxypyridin-2-yl)-2-(methylsulfonyl)ethyl)-7-methyl-6-phenyl-1H-imidazo[4,5-b]pyridin-2(3H)-one] |  |  | 
19 | + | + | + |  | CCOc1nc([C@@H](CS(C)(=O)=O)n2c(=O)[nH]c3cc(-c4ccc(F)cc4C)ccc32)ccc1OC [Ex. 169, (S)-5-(4-fluoro-2-methylphenyl)-1-(1-(6-ethoxy-5-methoxypyridin-2-yl)-2-(methylsulfonyl)ethyl)-1H-benzo[d]imidazol-2(3H)-one] |  |  | 
20 | + | + | + |  | CCOc1nc([C@H](CS(C)(=O)=O)n2c(=O)[nH]c3cc(-c4ccccc4F)ccc32)ccc1OC [Ex. 134, (R)-1-(1-(6-ethoxy-5-methoxypyridin-2-yl)-2-(methylsulfonyl)ethyl)-5-(2-fluorophenyl)-1H-benzo[d]imidazol-2(3H)-one] |  |  | 
21 | + | + | + |  | CCOc1nc([C@@H](CS(C)(=O)=O)n2c(=O)n(C)c3cc(-c4ccc(F)cc4OC)cnc32)ccc1OC [Ex. 120, (S)-6-(4-fluoro-2-methoxyphenyl)-3-(1-(6-ethoxy-5-methoxypyridin-2-yl)-2-(methylsulfonyl)ethyl)-1-methyl-1H-imidazo[4,5-b]pyridin-2(3H)-one] |  |  | 
22 | + | + | + |  | CCOc1nc([C@@H](CS(C)(=O)=O)n2c(=O)[nH]c3cc(-c4cc(C)ccc4C)ccc32)ccc1OC [Ex. 164, (S)-5-(2,5-dimethylphenyl)-1-(1-(6-ethoxy-5-methoxypyridin-2-yl)-2-(methylsulfonyl)ethyl)-1H-benzo[d]imidazol-2(3H)-one] |  |  | 
